Reference: US20030206968A1, “Fungicidal mixtures” (priority 1999, published 2003)

Tests used:
Format in all cases: in vivo
Puccinia recondita [1] = test: Field test, Puccinia recondita on wheat; conditions: metconazole 45 g/ha alone, 50 days after application
Method: (§1) The trials are carried out under greenhouse (Examples 1 to 32) or field conditions (Examples 33 to 40) in residual or curative applications. The fungicides are applied in single treatments, or in a combination comprising an azolopyrimidine of formula I and a compound selected from the classes (A), (B) and (C) as defined above. The compounds are applied in form of an aqueous spray mix obtained from a concentrated formulation or the technical material.
(§2) For the field study formulated Azolopyrimidine A, B or C and formulated compounds from the classes (A), (B) and (C) were used.
(§3) Assessments of the diseases took place at the indicated day after the application of the compounds. Per cent infected leaf area infected was evaluated. The efficacy of the compounds/compounds mixtures to control the diseases was calculated by using the formula given above under item 4: […]
(§4) Synergy was calculated using the % disease control values of specific treatments for the two COLBY formula given hereinabove
(§5) The compounds are applied according to good agricultural practice in the form of an aqueous spray mix obtained from a concentrated formulation or the technical material at a rate of 400 l/ha. The disease control is evaluated according to the formula given for the greenhouse tests.
(§6) Fungicidal efficacy of the mixture of Azolopyrimidine A and different cereal fungicides in the field against Puccinia recondita on wheat 50 days after application The tank mix was obtained from an SC formulation containing 100 g Azolopyrimidine A per liter and commercially available formulations of metconazole, epoxiconazole, propiconazole or kresoxim methyl, respectively.

Pyrenophora teres = test: Greenhouse, Pyrenophora teres on barley, 1 day residual; conditions: Example 10
Method: as §1
(§7) 1. Seed is planted in 6 cm diameter plastic pots and maintained in the greenhouse.
(§8) 2. When the primary leaf is fully expanded in the case of cereals or several leaves are present in the case of dicots, formulated test compounds are sprayed with a three nozzle overhead fungicide sprayer to near run-off. Alternatively, a single nozzle overhead track sprayer is used for application of the compounds to cereals at a rate of 200 l/ha. Plants are then allowed to air-dry.
(§9) 3. Inoculation precedes treatment in the case of curative evaluations and follows treatment in case of residual evaluations. For inoculation of powdery mildew disease, plants are set up on greenhouse benches with bottom watering mats and inoculated by dusting them with conidia from infected plants. Between inoculation and treatment for curative evaluations and between treatment and inoculation for residual evaluations, plants are maintained in the greenhouse with bottom watering.
(§10) For inoculation of non-powdery mildew diseases, an aqueous spore suspension of the pathogen is applied to the plant and the plants are kept 1-2 days in a moist infection chamber before being returned to the greenhouse where they are maintained by bottom watering.
(§11) 4. Disease on the foliage as percent leaf area with disease symptoms/signs is evaluated about 7 days after inoculation. In the case of wheat, the tips and bases of the leaves are excluded from the evaluation. [formula]
(§12) 1. Technical compounds are formulated in a solvent/surfactant system consisting of 5% acetone and 0.05% Tween 20 in deionized water. Compounds are dissolved in acetone prior to addition of the water; the Tween 20 can be added through either the acetone or the water. Dilutions are made using the solvent/surfactant system. Formulated compounds are prepared using deionized water.
(§13) 2. Two kinds of controls are included: Plants treated with the solvent/surfactant solution and inoculated (Solvent Blank). Untreated plants which are inoculated (Inoculated Control).
as §3, §4
Fungicidal efficacy of the mixture of Azolopyrimidine C+metconazole (1 day residual) against Pyrenophora teres on barley The tank mix was obtained from a SC formulation containing 100 g Azolopyrimidine C per liter and an EC containing 100 g metconazole per liter.

Septoria tritici [2] = test: Greenhouse, Septoria tritici on wheat, 1 day residual; conditions: Example 9
Method: as §1, §7, §8, §9, §10, §11, §12, §13, §3, §4
Fungicidal efficacy of the mixture of Azolopyrimidine C+metconazole (1 day residual) against Septoria tritici on wheat The tank mix was obtained from a SC formulation containing 100 g Azoplopyrimidine C per liter and an EC containing 100 g metconazole per liter.

Septoria tritici [3] = test: Field test, Septoria tritici on wheat
Method: as §1, §2, §3, §4, §5
Fungicidal efficacy of the mixture of Azolopyrimidine C+metconazole in the field against Septoria tritici on wheat The tank mix was obtained from an EC formulation containing 150 g Azolopyrimidine C per liter and a SL formulation containing 60 g metconazole per liter. The observed and expected efficacies with different rates are given in Table XXXIVa (19 days after application) and Table XXXIVb (25 days after application):
Fungicidal efficacy of the mixture of (S)-Azolopyrimidine C+kresoxim methyl in the field against Septoria tritici on wheat The tank mix was obtained from a SC formulation containing 100 g (S)-Azolopyrimidine C per liter and a WG formulation containing 500 g kresoxim methyl per kg. The observed and expected efficacies with different rates are given in Tables XXXVa (7 days after application), XXXVb (22 days after application), XXXVc (34 days after application), and XXXVd (41 days after application):
as §6, with “fungicides” for “fungicides in”, “Septoria tritici” for “Puccinia recondita”, “15” for “50”, “epoxiconazole” for “epoxiconazole, propiconazole”, “propiconazole,” for “kresoxim methyl,”

Rhynchosporium secalis = test: Greenhouse, Rhynchosporium secalis on barley, 1 day residual; conditions: Example 8; dose rate 100 ppm
Method: as §1, §7
2. When the primary leaf is fully expanded in the case of cereals or several leaves are present in the case of dicots, formulated test compounds are sprayed with a three nozzle overhead fungicide sprayer to near run-off. […]
4. Disease on the foliage as percent leaf area with disease symptoms/signs is evaluated about 7 days after inoculation. […]
as §3
Synergy was calculated using the % disease control values of specific treatments for the two COLBY formula given hereinabove […]

Blumeria graminis = test: Field test, Blumeria graminis on wheat; conditions: metconazole 45 g/ha alone, 15 days after application
Method: as §1, §2, §3, §4, §5
(§14) Fungicidal efficacy of the mixture of (S)-Azolopyrimidine C+cyproconazole in the field against Blumeria graminis on wheat 17 days after application The tank mix was obtained from a SC formulation containing 100 g (S)-Azolopyrimidine C per liter and an EC formulation containing 60 g cyproconazole per liter.
as §14, with “C+azoxystrobin” for “C+cyproconazole”, “a SC” for “an EC”, “250” for “60”, “azoxystrobin” for “cyproconazole”, “kg.” for “liter.”
as §6, with “Blumeria graminis” for “Puccinia recondita”, “15” for “50”, “epoxiconazole” for “epoxiconazole, propiconazole”

Puccinia recondita [4] = test: Greenhouse, Puccinia recondita on wheat, 1 day residual; conditions: Puccinia recondita, Example 11, read-out: Observed Efficacy
Excerpt: as §1, with “The” for “The trials are carried out under greenhouse (Examples 1 to 32) or field conditions (Examples 33 to 40) in residual or curative applications. The”
as §7, §8, §9, §10, §11, §12, §13, §3, §4
Fungicidal efficacy of the mixture of Azolopyrimidine C+metconazole (1 day residual) against Puccinia recondita on wheat The tank mix was obtained from a SC formulation containing 100 g Azolopyrimidine C per liter and an EC containing 100 g metconazole per liter. […]
Fungicidal efficacy of the mixture of Azolopyrimidine C+fluazinam (1 day residual) against Puccinia recondita on wheat The tank mix was obtained from technical material of Azolopyrimidine C and a SC formulation containing 500 g fluazinam per liter. […]

Botrytis cinerea = test: Field test, Botrytis cinerea in vines; conditions: Example 33
Method: as §1, §2, §3, §4
The compounds are applied according to good agricultural practice in the form of an aqueous spray mix obtained from a concentrated formulation or the technical material at a rate of 400 l/ha. The disease control is evaluated according to the formula given for the greenhouse tests. […]

## CC1(C)CCC(Cc2ccc(Cl)cc2)C1(O)Cn1cncn1 (stereo not shown) [metconazole]
Puccinia recondita [1]
  Observed Efficacy: 75
Pyrenophora teres; dose rate 10 ppm
  Observed Efficacy: 4%
Pyrenophora teres; dose rate 25 ppm
  Observed Efficacy: 9%
Pyrenophora teres; dose rate 40 ppm
  Observed Efficacy: 34%
Pyrenophora teres; dose rate 125 ppm
  Observed Efficacy: 68%
Pyrenophora teres; dose rate 200 ppm
  Observed Efficacy: 73%
Septoria tritici [2]; dose rate 2 ppm
  Observed Efficacy: 0%
Septoria tritici [2]; dose rate 5 ppm
  Observed Efficacy: 0%
Septoria tritici [2]; dose rate 8 ppm
  Observed Efficacy: 0%
Septoria tritici [2]; dose rate 10 ppm
  Observed Efficacy: 0%
Septoria tritici [2]; dose rate 25 ppm
  Observed Efficacy: 0%
Septoria tritici [3]; Example 34, 19 days after application, dose rate 15 g/ha
  Observed Efficacy: 9%
Septoria tritici [3]; Example 34, 19 days after application, dose rate 30 g/ha
  Observed Efficacy: 36%
Septoria tritici [3]; Example 34, 19 days after application, dose rate 45 g/ha
  Observed Efficacy: 24%
Septoria tritici [3]; Example 34, 25 days after application, dose rate 15 g/ha
  Observed Efficacy: 33%
Septoria tritici [3]; Example 34, 25 days after application, dose rate 60 g/ha
  Observed Efficacy: 48%
Septoria tritici [3]; metconazole 45 g/ha alone, 15 days after application, field, wheat
  Observed Efficacy: 77
Rhynchosporium secalis
  Observed Efficacy: 87%
Blumeria graminis
  Observed Efficacy: 54
Puccinia recondita [4]; dose rate 2 ppm
  pest or weed control at 2 ppm: 0%
Puccinia recondita [4]; dose rate 8 ppm
  pest or weed control at 8 ppm: 0%
Puccinia recondita [4]; dose rate 10 ppm
  pest or weed control at 10 ppm: 8%
Puccinia recondita [4]; dose rate 25 ppm
  pest or weed control at 25 ppm: 14%
Puccinia recondita [4]; dose rate 40 ppm
  pest or weed control at 40 ppm: 31%
Puccinia recondita [4]; dose rate 50 ppm
  pest or weed control at 50 ppm: 72%
Puccinia recondita [4]; dose rate 125 ppm
  pest or weed control at 125 ppm: 97%

## Cc1cc(C)nc(Nc2ccccc2)n1 [pyrimethanil]
Botrytis cinerea; dose rate 500 g/ha
  Observed Efficacy: 66%

## Fc1cccc(Cl)c1-c1c(Cl)nc2ncnn2c1NCC(F)(F)F [Azolopyrimidine B, 5-chloro-6-(2-chloro-6-fluorophenyl)-7-(2,2,2-trifluoroethylamino)-[1,2,4]triazolo[1,5-a]pyrimidine]
Botrytis cinerea; dose rate 250 g/ha
  Observed Efficacy: 58%
